# System: A. gambiae sensu lato
# Assay: Feeding proportion experiments (90 s on membrane feeder)
# Assay type: in vivo
# Description: Mosquitoes used in this study were from the laboratory colony of A. gambiae sensu lato (Keele line, University of Glasgow), which was produced by balanced interbreeding of four A. gambiae s.s. strains (H. Hurd, et al. Evolution, 59, 2560-2572 (2005)). Larvae were reared under standard insectary conditions (27±1° C., 70% humidity, 12 h light: 12 h dark cycle) and fed on TetraMin fish flakes (Tetra ltd., Germany). Pupae were transferred into holding cages for emergence. Emerged adults were fed ad libitum on 5% glucose solution, supplemented with 0.05% (w/v) 4-aminobenzoic acid (PABA, Sigma-Aldrich), through soaked filters on top of the 2 ml tubes and with soaked filter pads inside cages. Red blood cells (RBCs) were washed with Roswell Park Memorial Institute (RPMI) medium and stored in RPMI at 50% haematocrit at 4° C. until use. […]
# Fifty mosquitoes were isolated in three separate cages (8 cm internal diameter×10 cm in height) covered with netting, and fed on 1 ml of control RBCs, hRBCs or giRBCs, respectively. […] For each group, the number of fully fed mosquitoes compared to unfed controls was immediately recorded. In another set of feeding experiments, serum or a 0.9% physiological saline solution (NaCl, pH 7.4), either with or without 10 μM HMBPP, were offered to mosquitoes during a 5 min feeding window, and the number of fed mosquitoes recorded every minute for each cage separately. […]
smiles,measurement,setting,value
"C/C(=C\COP(=O)(O)OP(=O)(O)O)CO [HMBPP, (E)-4-hydroxy-3-methyl-but-2-enyl pyrophosphate]",proportion of mosquitoes feeding over a range of HMBPP concentrations,"RBCs supplemented with different concentrations of HMBPP, below 10 μM",substantially lower doses are sufficient to trigger enhanced mosquito feeding
same,proportion of females fed,"hRBCs (10 μM HMBPP) vs RBCs, 90 s feeding, FIG. 1B",more than doubled
